Source: ChEMBL document CHEMBL3885861, “Open TG-GATES”

Species on record: Rattus norvegicus
Assay: Open TG-GATES - Regimen: Single
Type: toxicity, organism-based, Sprague-Dawley
Parameters: regimen Single, gender Male, age 6 weeks
Conditions: in vivo, po, route gavage; for APTT / Bas / Eos / Fbg / Hb / Ht / MCH / MCHC / MCV / Mono / PT / Plat / RBC / Ret / WBC: tissue Blood; for ALP / ALT / CRE / DBIL / GLC / IP / K / LDH / Na / PL / RALB / TBIL / TC / TG / TP / gamma-GTP: tissue Plasma
[1] = 0 mg/kg, 3 h, dose level Control
[2] = 0 mg/kg, 6 h, dose level Control
[3] = 0 mg/kg, 9 h, dose level Control
[4] = 0 mg/kg, 24 h, dose level Control

## CCN(CC)C(=S)SSC(=S)N(CC)CC
[1]
  TERMINAL_BW: 212.4 g
  APTT: 21.9 s
  Bas: 0%
  Eos: 0.6%
  Fbg: 285.8 mg/dL
  Hb: 13.2 g/dL
  Ht: 40.8%
  MCH: 20.6 pg
  MCHC: 32.3%
  MCV: 63.8 fL
  Mono: 2.6%
  PT: 16.5 s
  Plat: 98.3 x10_4/uL
  RBC: 639.2 x10_4/ul
  Ret: 7.6%
  WBC: 97.5 x10_2/uL
  ALP: 1602.8 IU/L
  ALT: 48 IU/L
  CRE: 0.2 mg/dL
  DBIL: 0 mg/dL
  GLC: 188.6 mg/dL
  IP: 7.8 mg/dL
  K: 4.2 meq/L
  LDH: 236.6 IU/L
  Na: 141.4 meq/L
  PL: 138 mg/dL
  RALB: 3 g/dL
  TBIL: 0.006 mg/dL
  TC: 73.6 mg/dL
  TG: 72.4 mg/dL
  TP: 5.5 g/dL
  gamma-GTP: 1 IU/L
[2]
  TERMINAL_BW: 208.9 g
  APTT: 21.8 s
  Bas: 0%
  Eos: 0.8%
  Fbg: 286.4 mg/dL
  Hb: 12.8 g/dL
  Ht: 39.4%
  MCH: 20.1 pg
  MCHC: 32.4%
  MCV: 62 fL
  Mono: 2%
  PT: 16.6 s
  Plat: 119.2 x10_4/uL
  RBC: 635.6 x10_4/ul
  Ret: 7.1%
  WBC: 102.5 x10_2/uL
  ALP: 1209.4 IU/L
  ALT: 38.8 IU/L
  CRE: 0.1 mg/dL
  DBIL: 0 mg/dL
  GLC: 184 mg/dL
  IP: 9.5 mg/dL
  K: 4.4 meq/L
  LDH: 188 IU/L
  Na: 141 meq/L
  PL: 124.6 mg/dL
  RALB: 3 g/dL
  TBIL: 0.004 mg/dL
  TC: 71.8 mg/dL
  TG: 56.8 mg/dL
  TP: 5.3 g/dL
  gamma-GTP: 1 IU/L
[3]
  TERMINAL_BW: 212.5 g
  APTT: 23.3 s
  Bas: 0%
  Eos: 0.8%
  Fbg: 297.2 mg/dL
  Hb: 12.9 g/dL
  Ht: 39.9%
  MCH: 20.2 pg
  MCHC: 32.3%
  MCV: 62.6 fL
  Mono: 2.6%
  PT: 16.4 s
  Plat: 107.7 x10_4/uL
  RBC: 638.6 x10_4/ul
  Ret: 7.1%
  WBC: 111.4 x10_2/uL
  ALP: 1326.8 IU/L
  ALT: 33.6 IU/L
  CRE: 0.2 mg/dL
  DBIL: 0.002 mg/dL
  GLC: 198.8 mg/dL
  IP: 10 mg/dL
  K: 4.1 meq/L
  LDH: 130 IU/L
  Na: 140.8 meq/L
  PL: 132.4 mg/dL
  RALB: 3.1 g/dL
  TBIL: 0.008 mg/dL
  TC: 72.6 mg/dL
  TG: 82.4 mg/dL
  TP: 5.4 g/dL
  gamma-GTP: 1 IU/L
[4]
  TERMINAL_BW: 229.8 g
  APTT: 20.8 s
  Bas: 0%
  Eos: 1%
  Fbg: 278.6 mg/dL
  Hb: 12.5 g/dL
  Ht: 38.4%
  MCH: 20.4 pg
  MCHC: 32.6%
  MCV: 62.5 fL
  Mono: 2.6%
  PT: 16.4 s
  Plat: 106.2 x10_4/uL
  RBC: 613.8 x10_4/ul
  Ret: 7.5%
  WBC: 83.8 x10_2/uL
  ALP: 1487.8 IU/L
  ALT: 40.4 IU/L
  CRE: 0.1 mg/dL
  DBIL: 0 mg/dL
  GLC: 193.4 mg/dL
  IP: 7.8 mg/dL
  K: 4.2 meq/L
  LDH: 167.6 IU/L
  Na: 141.2 meq/L
  RALB: 3 g/dL
  TBIL: 0.01 mg/dL
  TC: 78.4 mg/dL
  TG: 81.6 mg/dL
  TP: 5.5 g/dL
  gamma-GTP: 1.8 IU/L
60 mg/kg, 3 h, dose level Low
  TERMINAL_BW: 215.7 g
  APTT: 20.7 s
  Bas: 0%
  Eos: 0.6%
  Fbg: 298.2 mg/dL
  Hb: 12.9 g/dL
  Ht: 39.9%
  MCH: 20.2 pg
  MCHC: 32.3%
  MCV: 62.6 fL
  Mono: 3.6%
  PT: 16.3 s
  Plat: 128.9 x10_4/uL
  RBC: 638.2 x10_4/ul
  Ret: 8.8%
  WBC: 84.6 x10_2/uL
  ALP: 1871.6 IU/L
  ALT: 41.6 IU/L
  CRE: 0.1 mg/dL
  DBIL: 0.002 mg/dL
  GLC: 178.2 mg/dL
  IP: 8.8 mg/dL
  K: 4.1 meq/L
  LDH: 188.6 IU/L
  Na: 141.4 meq/L
  PL: 128.6 mg/dL
  RALB: 3.2 g/dL
  TBIL: 0.016 mg/dL
  TC: 71 mg/dL
  TG: 70 mg/dL
  TP: 5.5 g/dL
  gamma-GTP: 1.4 IU/L
60 mg/kg, 6 h, dose level Low
  TERMINAL_BW: 211.5 g
  APTT: 23.2 s
  Bas: 0%
  Eos: 0.8%
  Fbg: 293 mg/dL
  Hb: 13.2 g/dL
  Ht: 40.9%
  MCH: 20.3 pg
  MCHC: 32.4%
  MCV: 62.6 fL
  Mono: 3.4%
  PT: 16.3 s
  Plat: 125.2 x10_4/uL
  RBC: 653.8 x10_4/ul
  Ret: 7.3%
  WBC: 99 x10_2/uL
  ALP: 1256.6 IU/L
  ALT: 36.4 IU/L
  CRE: 0.1 mg/dL
  DBIL: 0 mg/dL
  GLC: 179 mg/dL
  IP: 9.1 mg/dL
  K: 4.3 meq/L
  LDH: 181.8 IU/L
  Na: 141.6 meq/L
  PL: 125.2 mg/dL
  RALB: 3 g/dL
  TBIL: 0.008 mg/dL
  TC: 68.6 mg/dL
  TG: 59.2 mg/dL
  TP: 5.3 g/dL
  gamma-GTP: 1 IU/L
60 mg/kg, 9 h, dose level Low
  TERMINAL_BW: 210.6 g
  APTT: 23 s
  Bas: 0%
  Eos: 0.2%
  Fbg: 307.2 mg/dL
  Hb: 13.1 g/dL
  Ht: 40.1%
  MCH: 20.2 pg
  MCHC: 32.5%
  MCV: 62.3 fL
  Mono: 2.6%
  PT: 15.8 s
  Plat: 121 x10_4/uL
  RBC: 645 x10_4/ul
  Ret: 7.5%
  WBC: 93.7 x10_2/uL
  ALP: 1515 IU/L
  ALT: 32.8 IU/L
  CRE: 0.1 mg/dL
  DBIL: 0.002 mg/dL
  GLC: 188.8 mg/dL
  IP: 9.6 mg/dL
  K: 4.1 meq/L
  LDH: 160.4 IU/L
  Na: 141.2 meq/L
  PL: 149.4 mg/dL
  RALB: 3.1 g/dL
  TBIL: 0.018 mg/dL
  TC: 81.6 mg/dL
  TG: 99 mg/dL
  TP: 5.5 g/dL
  gamma-GTP: 1 IU/L
60 mg/kg, 24 h, dose level Low
  TERMINAL_BW: 213.4 g
  APTT: 21.8 s
  Bas: 0%
  Eos: 0.4%
  Fbg: 274.6 mg/dL
  Hb: 12.6 g/dL
  Ht: 39%
  MCH: 20.3 pg
  MCHC: 32.3%
  MCV: 62.9 fL
  Mono: 2%
  PT: 16.6 s
  Plat: 117.1 x10_4/uL
  RBC: 620.4 x10_4/ul
  Ret: 7%
  WBC: 124.3 x10_2/uL
  ALP: 1307.4 IU/L
  ALT: 33.8 IU/L
  CRE: 0.2 mg/dL
  DBIL: 0 mg/dL
  GLC: 178 mg/dL
  IP: 6.5 mg/dL
  K: 4.3 meq/L
  LDH: 187.8 IU/L
  Na: 141.4 meq/L
  PL: 128.2 mg/dL
  RALB: 2.8 g/dL
  TBIL: 0.006 mg/dL
  TC: 74.6 mg/dL
  TG: 98 mg/dL
  TP: 5.1 g/dL
  gamma-GTP: 1 IU/L
